Experimental findings from PubChem BioAssay (NCI) are described below.

Experiment in all cases: NCI-60 cell line screen, 48 h
Assay [1] has as its system HOP-92 NSCLC.
Assay [2] concerns KM12 colon.
The test system of assay [3] is LOX IMVI melanoma.
The subject of assay [4] is RXF 393 renal.
The test system of assay [5] is SF-295 CNS.
Assay [6] deals with SK-OV-3 ovarian.
Assay [7] concerns U251 CNS.
Assay [8] has as its system NCI-H522 lung.
The subject of assay [9] is BT-549 breast.
Assay [10] concerns NCI/ADR-RES ovarian.

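Values below derive from 48-hour exposures of cells grown in 96-well plates, with endpoints linearly interpolated between the two concentrations bracketing the appropriate inhibition level. Abbreviation: GI50, concentration required for 50% inhibition of growth. TGI denotes the concentration required for complete inhibition of growth.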

Regarding `O=C(Nc1cccc2ccccc12)Oc1ccccc1C1CCCCC1`, the TGI in assay [1] is 30.7 µM; in [2] it was 41.7 µM; in [3] it was 31.1 µM; in assay [4], 29.2 µM; in assay [5], 31.3 µM; in assay [6], 67.7 µM. In addition, in assay [7], the TGI worked out at 26.7 µM.
As for `O=C(O)CCCl`, the TGI in [1], in assay [2], in assay [3], in [8], in assay [4] and in assay [5] was over 5000 µM throughout. In addition, the TGI in [6] and in assay [7] was over 5000 µM throughout.
Regarding `COc1ccc2oc(=N)c(C(=O)Nc3cccc4ccccc34)cc2c1`, the TGI in assay [9] was over 100 µM; in [2], over 100 µM; in assay [10], over 100 µM; in assay [4] it was 20 µM; in [5], 25.4 µM; in [6], 92.7 µM. This compound displayed a TGI in assay [7] of 50.2 µM.
Consider `CCC(C)[C@H](NC(=O)[C@H](Cc1ccccc1)NC(=O)N(CC)c1ccccc1)C(=O)N[C@@H](CC(C)C)C(=O)OC` (stereo not given in full), for which the TGI in assay [9] was over 100 µM; in [1] it was over 100 µM; in assay [2], 61.3 µM; in assay [3], over 100 µM; in [10] it was over 100 µM; in assay [4], over 100 µM. Moreover, the TGI in assay [5], in assay [6] and in assay [7] was over 100 µM each time.
With `O=c1cnn(C/C=C\CO)c(=O)[nH]1`, the TGI in assay [1], in assay [2], in assay [3], in assay [8], in assay [10] and in [4] was over 100 µM throughout. Besides, the TGI in assay [7] is over 100 µM.
As to `CCOC(=O)c1cn(-c2ccccc2)c(=S)n2c1nc1ccccc12`, the TGI in [9] is over 100 µM; in [1], 47.7 µM; in [2], over 100 µM; in assay [3], over 100 µM; in assay [10], over 100 µM; in [4], over 100 µM. For the same compound, the TGI in assay [5], in assay [6] and in assay [7] was over 100 µM throughout.
Consider `O=C(CSCC(=O)N/N=C/c1cc(I)cc(I)c1O)N/N=C/c1cc(I)cc(I)c1O`, for which the TGI is over 100 µM in assay [1]; 88.2 µM in [2]; 35 µM in assay [8]; 59.9 µM in [10]; 24.5 µM in assay [4]; 47.1 µM in assay [5]. Besides, the TGI in assay [6] was 35 µM; in assay [7], 26.2 µM.
Take `COc1cc2c(cc1OCCCN1CCN(CCCOc3cc4c(cc3OC)C(=O)N3CCC[C@H]3C=N4)CC1)C=CC(C)(C)O2`: the GI50 is 941 nM in assay [9]; 904 nM in assay [2]; 755 nM in assay [3]; 1480 nM in assay [8]; 2410 nM in assay [10]; 1610 nM in assay [6]. Also, the TGI turned out to be 2.47 µM in assay [9]; 2.14 µM in assay [2]; 2.09 µM in [3]; 4.27 µM in assay [8]; 5.31 µM in assay [10]; 2.99 µM in assay [6].
`CN(C)CC(/C(Cc1ccccc1)=N\NC(=O)C[n+]1ccccc1)c1ccccc1` (stereo not given): the TGI in [1], in assay [2], in assay [8], in [4], in assay [5] and in [6] was over 100 µM in each case. The compound further came in with a TGI in assay [7] of over 100 µM.
On to `O=C(CSc1nnc(-c2ccc(N=Cc3ccc(Cl)cc3)cc2)o1)Nc1ccccc1Cl`, for which the TGI in assay [2], in [3], in assay [8], in [4], in [5] and in assay [6] was over 100 µM throughout. In addition, the TGI in assay [7] was over 100 µM.
In the case of `c1csc(-c2ccc(-c3ccc(-c4ccc(-c5cccs5)s4)s3)s2)c1`, the TGI in assay [1], in assay [10], in [4], in assay [5], in assay [6] and in assay [7] was over 100 µM in each case.
Consider `O=C(Nc1c(O)[nH]c(=S)[nH]c1=O)c1ccccn1`, for which the TGI in assay [1], in [2], in assay [3], in [8], in [5] and in assay [6] was over 100 µM each time. In [7], this compound had a TGI of over 100 µM.
As for `C[N+]1(C)CCCC1C(=O)[O-]` (stereo not given), the TGI in [1], in [2], in assay [3], in [8], in [4] and in assay [5] was over 100 µM each time. In addition, the TGI in assay [6] and in assay [7] was over 100 µM throughout.
With `Nc1nc(N)c2ncn(CC3CCC(CO)C3)c2n1` (stereo not given), the TGI in assay [1], in assay [2], in assay [3], in assay [10], in assay [4] and in assay [5] was over 100 µM each time. Further, the TGI in assay [6] and in assay [7] was over 100 µM in each case.
For `Cc1c2cc[nH]c(C(F)(F)F)c2cc2c1nc1ccccc12`, the TGI in assay [1], in assay [2], in assay [3], in [8], in [10] and in [4] was over 125 µM throughout. Also, the TGI in [5], in assay [6] and in [7] was over 125 µM throughout.
On to `O=C1N[C@H]2c3c(Cl)sc(Cl)c3/C(=N/O)[C@H]2O1`, for which the TGI in [9], in assay [2], in [10], in assay [4], in assay [6] and in [7] was over 100 µM in each case.
